In article PMC6627486, “Ipomoeassin F Binds Sec61α to Inhibit Protein Translocation” (Journal of the American Chemical Society, 2019):

Tests used:
[1] = molecular target: T1, Sec61-mediated protein translocation (Canis lupus familiaris, UniProt P38377); assay: In vitro translation and Sec61-dependent translocation into ER microsomes; format: biochemical, canine
T1 construct: ER microsomes derived from canine pancreas; from tissue; host or cells: canine pancreas ER microsomes (nuclease-treated)
Excerpt: (§1) In Vitro Membrane Translocation Assays.
(§2) Unless otherwise stated, all cDNAs are of human origin and as previously described: CytB5OPG2,16 GypC,17 ppαF (Saccharomyces cerevisiae),16 ppcecAOPG2 (Hyalophora cecropia),16 PPL (Bos Taurus),16 Sec61βOPG216 and VCAM1.17 Ii encodes residues 17 to 232 of the short form of human HLA class II histocompatibility antigen gamma chain (Ii; P04232, isoform 2). Linear DNA templates were generated by PCR and transcribed into RNA using T7 or SP6 polymerase (Promega).
(§3) In vitro translation and translocation into ER microsomes
(§4) Translation reactions (20 μL) were performed in nuclease-treated rabbit reticulocyte lysate (Promega) in the presence of EasyTag EXPRESS 35S Protein Labelling Mix containing [35S] methionine (Perkin Elmer) (0.533 MBq; 30.15 TBq/mmol). Amino acids minus methionine (Promega) were added to 25 µM each, […]
(§5) equivalent volume of DMSO, and nuclease-treated ER microsomes (from stock with OD280 = 44/mL) were added to 6.5% (v/v). Lastly, 10% volume of in vitro transcribed mRNA (from 200-1000 ng/μL stocks) encoding the relevant precursor protein was added and translation reactions performed for 20 min at 30°C. Following incubation with 0.1 mM puromycin for 5 min at 30°C to ensure translational termination and ribosome release, membrane-associated fractions were isolated by centrifugation through an 80 μL high-salt cushion (0.75 M sucrose, 0.5 M KOAc, 5 mM Mg(OAc)2, 50 mM Hepes-KOH, pH 7.9) at 100,000 x g for 10 min at 4°C in a TLA100 rotor (Beckmann). Membrane pellets were suspended directly in SDS (sodium dodecyl sulphate) sample buffer (0.02% bromophenol blue, 62.5 mM, 4% (w/v) SDS, 10% (v/v) glycerol, pH 7.6, 1 M dithiothreitol) and, where indicated, treated with 1,000 U of Endoglycosidase H (New England Biolabs) for 30 min at 37°C prior to analysis. All samples were denatured for 10 min at 70°C prior to resolution by SDS-PAGE (12% or 16% polyacrylamide gels, 120 V, 120 min), gels were fixed (20% MeOH, 10% AcOH) for 5 min, dried (BioRad gel dryer) for 2 h at 65°C and, following exposure to a phosphorimaging plate for 24-72 h, radiolabelled products were visualised using a Typhoon FLA-7000 (GE Healthcare).
(§6) Quantitative analysis of Ii membrane insertion was performed using AIDA v.5.0 (Raytest Isotopenmeβgeräte) whereby the ratio of the signal intensity for the 2Gly/0Gly forms was used as a read-out to estimate efficiency of integration into the ER membrane. This value was then expressed relative to the matched DMSO control in order to derive the mean relative ER insertion from three independent experiments (n=3). Statistical significance of the effectiveness of Ipom-F analogues (RM one-way ANOVA) was determined using Tukey’s multiple comparisons test. IC50 value estimates were determined using non-linear regression to fit data to a curve of variable slope (four parameters) using the least squares fitting method in which the bottom and top plateaus of the curve were defined as 0% and 100% respectively. The differences between the estimated IC50 values for the three compounds analysed were statistically significant (****) according to the extra-sum-of-squares F test. Statistical analyses and IC50 estimates were performed using Prism 7.0d (GraphPad) with statistical significance given as n.s., non - significant and ****, P < 0.0001.
(§7) U2-OS secNLuc-ATZ Secretion and Cell Viability Assays

[2] = system: Sec61-mediated protein translocation; assay: as above; format: biochemical, canine
Excerpt: as §1, §2, §3, §4, §5, §6, §7

[3] = system: several cancer-derived cell lines; set-up: method as in PMID 19697385; conditions: cited from earlier work

T1 sequence (P38377 whole entry): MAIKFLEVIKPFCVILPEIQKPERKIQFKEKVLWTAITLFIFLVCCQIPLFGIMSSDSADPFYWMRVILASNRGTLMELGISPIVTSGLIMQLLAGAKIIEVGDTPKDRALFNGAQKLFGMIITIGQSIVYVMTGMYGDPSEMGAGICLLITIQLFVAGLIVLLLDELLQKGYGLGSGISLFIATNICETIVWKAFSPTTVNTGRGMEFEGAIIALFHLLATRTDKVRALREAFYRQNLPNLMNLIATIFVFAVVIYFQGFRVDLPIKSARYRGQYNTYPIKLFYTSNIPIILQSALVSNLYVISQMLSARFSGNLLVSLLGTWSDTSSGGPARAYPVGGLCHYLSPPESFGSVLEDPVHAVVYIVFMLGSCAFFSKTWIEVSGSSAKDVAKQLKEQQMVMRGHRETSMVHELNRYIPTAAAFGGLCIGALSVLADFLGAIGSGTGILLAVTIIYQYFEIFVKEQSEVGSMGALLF
T1 sequence (P60467 whole entry, further chain): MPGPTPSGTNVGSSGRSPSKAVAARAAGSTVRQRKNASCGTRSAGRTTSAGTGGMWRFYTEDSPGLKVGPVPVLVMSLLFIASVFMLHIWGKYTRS
T1 sequence (P60058 whole entry, further chain): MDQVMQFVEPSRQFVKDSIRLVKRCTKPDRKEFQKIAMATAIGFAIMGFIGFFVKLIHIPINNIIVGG

In the case of `C/C=C(\C)C(=O)O[C@@H]1[C@@H](O)[C@@H]2O[C@H]3[C@H](O[C@@H](CCCCC)CCCCCCC(=O)CCC(=O)OC[C@@H](O2)[C@H]1OC(=O)/C=C/c1ccccc1)O[C@H](C)[C@H](OC(C)=O)[C@@H]3O` [ipomoeassin F], the IC50 [1] is reported as roughly 0.05 µM, the “membrane insertion of type I and type II integral membrane proteins (VCAM1, Ii)” value [1] is reported as “potently inhibits” and the “translocation of short secretory protein prepro-cecropin A” value [1] is reported as “only a marginal impact”. For the same molecule, the “translocation of secretory proteins bovine preprolactin and yeast prepro-alpha-factor” value ([1]; 1 μM compound) was “almost completely prevented”, the “inhibition of Ii membrane insertion” value ([1]; type II membrane protein Ii, ER microsomes) was “strongly inhibit membrane insertion” and the “membrane insertion of type III integral membrane protein glycophorin C” value [2] was “no effect”. For the same molecule, the “in vitro integration of tail-anchored proteins (Sec61βOPG2, Cytb5OPG2)” value ([2]; Sec61-independent control substrates) was “unaffected” and the “IC50 values against several cancer-derived cell lines” value [3] was “single-digit nanomolar”.
